Reference: patent US20220119354A1, “DIAMINO-SUBSTITUTED PYRIDINES AND PYRIMIDINES AS HERBICIDES” (FMC Corporation, priority 2019, published 2022)

Columns and labels:
Format in all cases: in vivo
[1] = system: ryegrass, Italian (Lolium multiflorum); assay: Test A preemergence, Italian ryegrass; conditions: 0 to 100 scale
Outline: (§1)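 Visual injury scored against untreated controls about 10 d after treatment, scale 0 = no effect to 100 = complete control. Compounds, formulated with surfactant in a non-phytotoxic solvent, went on as directed soil spray preemergence or onto 2–10 cm, one- to two-leaf plants postemergence; loam–sand soil, greenhouse.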

[2] = system: rice (Oryza sativa); assay: Test B flooded paddy test, rice; conditions: Flood, 250 g ai/ha, applied to paddy water, 2-leaf stage, visual evaluation after 13 to 15 d
Outline: (§2)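 Growth to two leaves preceded treatment. Flooding to 3 cm above soil surface, then water-applied compound; depth kept constant. Scored visually relative to controls after 13–15 d greenhouse; 100 means full control.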

[3] = system: ragweed (common ragweed, Ambrosia elatior); assay: Test A postemergence, ragweed; conditions: 0 to 100 scale
Outline: as §1

[4] = system: pigweed (Amaranthus retroflexus); assay: Test A postemergence, pigweed; conditions: 0 to 100 scale
Outline: as §1

[5] = system: ducksalad (Heteranthera limosa); assay: Test B flooded paddy test, ducksalad; conditions: Flood, 250 g ai/ha, applied to paddy water, 2-leaf stage, visual evaluation after 13 to 15 d
Outline: as §2

[6] = system: kochia (Kochia scoparia); assay: Test A postemergence, kochia; conditions: 0 to 100 scale
Outline: as §1

[7] = system: ryegrass, Italian (Lolium multiflorum); assay: Test A postemergence, Italian ryegrass; conditions: 0 to 100 scale
Outline: as §1

[8] = system: barnyardgrass (Echinochloa crus-galli); assay: Test B flooded paddy test, barnyardgrass; conditions: Flood, 250 g ai/ha, applied to paddy water, 2-leaf stage, visual evaluation after 13 to 15 d
Outline: as §2

[9] = system: foxtail, giant (Setaria faberii); assay: Test A preemergence, giant foxtail; conditions: 0 to 100 scale
Outline: as §1

[10] = system: pigweed (Amaranthus retroflexus); assay: Test A preemergence, pigweed; conditions: 0 to 100 scale
Outline: as §1

[11] = system: sedge, umbrella (small-flower umbrella sedge, Cyperus difformis); assay: Test B flooded paddy test, umbrella sedge; conditions: Flood, 250 g ai/ha, applied to paddy water, 2-leaf stage, visual evaluation after 13 to 15 d
Outline: as §2

[12] = system: foxtail, giant (Setaria faberii); assay: Test A postemergence, giant foxtail; conditions: 0 to 100 scale
Outline: as §1

[13] = system: barnyardgrass (Echinochloa crus-galli); assay: Test A preemergence, barnyardgrass; conditions: 0 to 100 scale
Outline: as §1

[14] = system: barnyardgrass (Echinochloa crus-galli); assay: Test A postemergence, barnyardgrass; conditions: 0 to 100 scale
Outline: as §1

[15] = system: wheat (Triticum aestivum); assay: Test A postemergence, wheat; conditions: 0 to 100 scale
Outline: as §1

[16] = system: blackgrass (Alopecurus myosuroides); assay: Test A postemergence, blackgrass; conditions: 0 to 100 scale
Outline: as §1

[17] = system: ragweed (common ragweed, Ambrosia elatior); assay: Test A preemergence, ragweed; conditions: 0 to 100 scale
Outline: as §1

[18] = system: kochia (Kochia scoparia); assay: Test A preemergence, kochia; conditions: 0 to 100 scale
Outline: as §1

[19] = system: galium (catchweed bedstraw, Galium aparine); assay: Test A postemergence, galium; conditions: 0 to 100 scale
Outline: as §1

[20] = system: corn (Zea mays); assay: Test A postemergence, corn; conditions: 0 to 100 scale
Outline: as §1

| Compound | Plant response rating, Ryegrass, Italian ([1]; 125 g ai/ha) | Plant response rating, Ryegrass, Italian ([1]; 500 g ai/ha) | Plant response rating, Rice (0 to 100 scale, 0 is no effect, 100 is complete control) [2] | Plant response rating, Ragweed ([3]; 125 g ai/ha) | Plant response rating, Ragweed ([3]; 500 g ai/ha) | Plant response rating, Pigweed ([4]; 125 g ai/ha) | Plant response rating, Pigweed ([4]; 500 g ai/ha) | Plant response rating, Ducksalad (0 to 100 scale, 0 is no effect, 100 is complete control) [5] | Plant response rating, Kochia ([6]; 125 g ai/ha) | Plant response rating, Kochia ([6]; 500 g ai/ha) | Plant response rating, Ryegrass, Italian ([7]; 125 g ai/ha) | Plant response rating, Ryegrass, Italian ([7]; 500 g ai/ha) | Plant response rating, Barnyardgrass (0 to 100 scale, 0 is no effect, 100 is complete control) [8] | Plant response rating, Foxtail, Giant ([9]; 125 g ai/ha) | Plant response rating, Foxtail, Giant ([9]; 500 g ai/ha) | Plant response rating, Pigweed ([10]; 125 g ai/ha) | Plant response rating, Pigweed ([10]; 500 g ai/ha) | Plant response rating, Sedge, Umbrella (0 to 100 scale, 0 is no effect, 100 is complete control) [11] | Plant response rating, Foxtail, Giant ([12]; 125 g ai/ha) | Plant response rating, Foxtail, Giant ([12]; 500 g ai/ha) | other results |
| --- | --- | --- | --- | --- | --- | --- | --- | --- | --- | --- | --- | --- | --- | --- | --- | --- | --- | --- | --- | --- | --- |
| CC(Nc1ncc(C(F)(F)F)c(N)n1)C1Cc2ccccc2C1 (racemic) [Compound 6] | 30 | 70 | 0 | 20 | 40 | 90 | 100 | 0 | 70 | 90 | 0 | 20 | 0 | 90 | 100 | 100 | 100 | 0 | 0 | 20 | Plant response rating, Barnyardgrass ([13]; 125 g ai/ha): 0; Plant response rating, Barnyardgrass ([13]; 500 g ai/ha): 60; Plant response rating, Barnyardgrass ([14]; 125 g ai/ha): 10; Plant response rating, Barnyardgrass ([14]; 500 g ai/ha): 10; Plant response rating, Wheat ([15]; 125 g ai/ha): 0; Plant response rating, Wheat ([15]; 500 g ai/ha): 0; Plant response rating, Blackgrass ([16]; 125 g ai/ha): 0; Plant response rating, Blackgrass ([16]; 500 g ai/ha): 10; Plant response rating, Ragweed ([17]; 125 g ai/ha): 30; Plant response rating, Ragweed ([17]; 500 g ai/ha): 100; Plant response rating, Kochia ([18]; 125 g ai/ha): 80; Plant response rating, Kochia ([18]; 500 g ai/ha): 100; Plant response rating, Galium ([19]; 125 g ai/ha): 40; Plant response rating, Galium ([19]; 500 g ai/ha): 70; Plant response rating, Corn ([20]; 125 g ai/ha): 0; Plant response rating, Corn ([20]; 500 g ai/ha): 20 |
| Nc1nc(NC(c2cc3ccccc3o2)C2CC2)ncc1C(F)(F)F (racemic) [Compound 18] | 50 | 50 | 0 | 20 | 70 | 90 | 100 | 85 | 50 | 90 | 0 | 30 | 0 | 90 | 90 | 90 | 100 | 98 | 0 | 70 | Plant response rating, Barnyardgrass ([13]; 125 g ai/ha): 50; Plant response rating, Barnyardgrass ([13]; 500 g ai/ha): 80; Plant response rating, Barnyardgrass ([14]; 125 g ai/ha): 10; Plant response rating, Barnyardgrass ([14]; 500 g ai/ha): 80; Plant response rating, Wheat ([15]; 125 g ai/ha): 20; Plant response rating, Wheat ([15]; 500 g ai/ha): 10; Plant response rating, Blackgrass ([16]; 125 g ai/ha): 20; Plant response rating, Blackgrass ([16]; 500 g ai/ha): 80; Plant response rating, Ragweed ([17]; 125 g ai/ha): 80; Plant response rating, Ragweed ([17]; 500 g ai/ha): 100; Plant response rating, Kochia ([18]; 125 g ai/ha): 0; Plant response rating, Kochia ([18]; 500 g ai/ha): 60; Plant response rating, Galium ([19]; 125 g ai/ha): 40; Plant response rating, Galium ([19]; 500 g ai/ha): 90; Plant response rating, Corn ([20]; 125 g ai/ha): 0; Plant response rating, Corn ([20]; 500 g ai/ha): 0 |
| CC(Nc1ncc(C#N)c(N)n1)c1cc2ccccc2o1 (racemic) [Compound 19] | 0 | 60 | 0 | 0 | 0 | 0 | 50 | 0 | 0 | 30 | 0 | 20 | 0 | 0 | 20 | 30 | 90 | 0 | 0 | 0 | Plant response rating, Barnyardgrass ([13]; 125 g ai/ha): 0; Plant response rating, Barnyardgrass ([13]; 500 g ai/ha): 0; Plant response rating, Barnyardgrass ([14]; 125 g ai/ha): 0; Plant response rating, Barnyardgrass ([14]; 500 g ai/ha): 0; Plant response rating, Wheat ([15]; 125 g ai/ha): 0; Plant response rating, Wheat ([15]; 500 g ai/ha): 0; Plant response rating, Blackgrass ([16]; 125 g ai/ha): 20; Plant response rating, Blackgrass ([16]; 500 g ai/ha): 60; Plant response rating, Ragweed ([17]; 125 g ai/ha): 0; Plant response rating, Ragweed ([17]; 500 g ai/ha): 50; Plant response rating, Kochia ([18]; 125 g ai/ha): 0; Plant response rating, Kochia ([18]; 500 g ai/ha): 20; Plant response rating, Galium ([19]; 125 g ai/ha): 0; Plant response rating, Galium ([19]; 500 g ai/ha): 70; Plant response rating, Corn ([20]; 125 g ai/ha): 0; Plant response rating, Corn ([20]; 500 g ai/ha): 10 |
| CCC(Nc1ncc(C#N)c(N)n1)c1cc2ccccc2o1 (racemic) [Compound 20] | 30 | 90 | 0 | 20 | 70 | 60 | 90 | 0 | 50 | 90 | 0 | 0 | 0 | 0 | 80 | 50 | 100 | 0 | 0 | 10 | Plant response rating, Barnyardgrass ([13]; 125 g ai/ha): 40; Plant response rating, Barnyardgrass ([13]; 500 g ai/ha): 50; Plant response rating, Barnyardgrass ([14]; 125 g ai/ha): 0; Plant response rating, Barnyardgrass ([14]; 500 g ai/ha): 40; Plant response rating, Wheat ([15]; 125 g ai/ha): 0; Plant response rating, Wheat ([15]; 500 g ai/ha): 10; Plant response rating, Blackgrass ([16]; 125 g ai/ha): 30; Plant response rating, Blackgrass ([16]; 500 g ai/ha): 100; Plant response rating, Ragweed ([17]; 125 g ai/ha): 40; Plant response rating, Ragweed ([17]; 500 g ai/ha): 60; Plant response rating, Kochia ([18]; 125 g ai/ha): 0; Plant response rating, Kochia ([18]; 500 g ai/ha): 30; Plant response rating, Galium ([19]; 125 g ai/ha): 30; Plant response rating, Galium ([19]; 500 g ai/ha): 80; Plant response rating, Corn ([20]; 125 g ai/ha): 0; Plant response rating, Corn ([20]; 500 g ai/ha): 20 |
| CCC(Nc1ncc(C(F)(F)F)c(N)n1)c1cc2ccccc2o1 (racemic) [Compound 28] | 20 | 60 | 20 | 20 | 60 | 90 | 100 | 75 | 30 | 80 | 0 | 0 | 0 | 60 | 90 | 90 | 100 | 100 | 10 | 40 | Plant response rating, Barnyardgrass ([13]; 125 g ai/ha): 50; Plant response rating, Barnyardgrass ([13]; 500 g ai/ha): 90; Plant response rating, Barnyardgrass ([14]; 125 g ai/ha): 0; Plant response rating, Barnyardgrass ([14]; 500 g ai/ha): 30; Plant response rating, Wheat ([15]; 125 g ai/ha): 0; Plant response rating, Wheat ([15]; 500 g ai/ha): 10; Plant response rating, Blackgrass ([16]; 125 g ai/ha): 10; Plant response rating, Blackgrass ([16]; 500 g ai/ha): 80; Plant response rating, Ragweed ([17]; 125 g ai/ha): 20; Plant response rating, Ragweed ([17]; 500 g ai/ha): 100; Plant response rating, Kochia ([18]; 125 g ai/ha): 10; Plant response rating, Kochia ([18]; 500 g ai/ha): 90; Plant response rating, Galium ([19]; 125 g ai/ha): 70; Plant response rating, Galium ([19]; 500 g ai/ha): 90; Plant response rating, Corn ([20]; 125 g ai/ha): 0; Plant response rating, Corn ([20]; 500 g ai/ha): 80 |
